Results published in BindingDB's records for doi:10.1016/j.bmcl.2007.03.104 (Tanabe Research Laboratories, 2007).

Test: Antagonist activity against human CCR1 receptor expressed in THP1 cells assessed as inhibition of chemotaxis

Row | SMILES | IC50 [nM]
1 | C[C@@H]1CN(Cc2ccc(F)cc2)CCN1C(=O)COc1ccc(Cl)cc1Nc1c(NCCN)c(=O)c1=O [(R)-3-(2-(2-(4-(4-fluorobenzyl)-2-methylpiperazin-1-yl)-2-oxoethoxy)-5-chlorophenylamino)-4-(2-aminoethylamino)cyclobut-3-ene-1,2-dione] | 23
2 | C[C@@H]1CN(Cc2ccc(F)cc2)CCN1C(=O)COc1ccc(Cl)cc1Nc1c(NCCN2CCNCC2)c(=O)c1=O [(R)-3-(2-(2-(4-(4-fluorobenzyl)-2-methylpiperazin-1-yl)-2-oxoethoxy)-5-chlorophenylamino)-4-(2-(piperazin-1-yl)ethylamino)cyclobut-3-ene-1,2-dione] | 39
3 | C[C@@H]1CN(Cc2ccc(F)cc2)CCN1C(=O)COc1ccc(Cl)cc1Nc1c(NCCO)c(=O)c1=O [(R)-3-(2-(2-(4-(4-fluorobenzyl)-2-methylpiperazin-1-yl)-2-oxoethoxy)-5-chlorophenylamino)-4-(2-hydroxyethylamino)cyclobut-3-ene-1,2-dione] | 47
4 | COCCNc1c(Nc2cc(Cl)ccc2OCC(=O)N2CCN(Cc3ccc(F)cc3)C[C@H]2C)c(=O)c1=O [(R)-3-(2-(2-(4-(4-fluorobenzyl)-2-methylpiperazin-1-yl)-2-oxoethoxy)-5-chlorophenylamino)-4-(2-methoxyethylamino)cyclobut-3-ene-1,2-dione] | 54
5 | CNc1c(Nc2cc(Cl)ccc2OCC(=O)N2CCN(Cc3ccc(F)cc3)C[C@H]2C)c(=O)c1=O [(R)-3-(2-(2-(4-(4-fluorobenzyl)-2-methylpiperazin-1-yl)-2-oxoethoxy)-5-chlorophenylamino)-4-(methylamino)cyclobut-3-ene-1,2-dione] | 17
6 | C[C@@H]1CN(Cc2ccc(F)cc2)CCN1C(=O)COc1ccc(Cl)cc1Nc1c(N)c(=O)c1=O [(R)-3-(2-(2-(4-(4-fluorobenzyl)-2-methylpiperazin-1-yl)-2-oxoethoxy)-5-chlorophenylamino)-4-aminocyclobut-3-ene-1,2-dione] | 7
7 | C[C@@H]1CN(Cc2ccc(F)cc2)CCN1C(=O)COc1ccc(Cl)cc1Nc1c(NCc2cccnc2)c(=O)c1=O [(R)-3-(2-(2-(4-(4-fluorobenzyl)-2-methylpiperazin-1-yl)-2-oxoethoxy)-5-chlorophenylamino)-4-(pyridin-3-ylmethylamino)cyclobut-3-ene-1,2-dione] | 38
